The target in assay [1] is T1, Lysine-specific demethylase 5A (Homo sapiens, UniProt P29375). Put plainly: Inhibition of C-terminal FLAG-tagged human KDM5A expressed in Sf9 cells at 50 uM pre-incubated for 4 hrs before substrate addition and measured after 1 hr by AlphaScreen assay. For orientation: Alpha assays give light when donor and acceptor beads are brought close together.
Assay [2] concerns the target T1, Lysine-specific demethylase 5A. Put plainly: Inhibition of C-terminal FLAG-tagged human KDM5A expressed in Sf9 cells pre-incubated for 4 hrs before substrate addition and measured after 1 hr by AlphaScreen assay.
The target in assay [3] is T2, Lysine-specific demethylase 4A (Homo sapiens) (UniProt O75164).
T2 sequence (whole entry): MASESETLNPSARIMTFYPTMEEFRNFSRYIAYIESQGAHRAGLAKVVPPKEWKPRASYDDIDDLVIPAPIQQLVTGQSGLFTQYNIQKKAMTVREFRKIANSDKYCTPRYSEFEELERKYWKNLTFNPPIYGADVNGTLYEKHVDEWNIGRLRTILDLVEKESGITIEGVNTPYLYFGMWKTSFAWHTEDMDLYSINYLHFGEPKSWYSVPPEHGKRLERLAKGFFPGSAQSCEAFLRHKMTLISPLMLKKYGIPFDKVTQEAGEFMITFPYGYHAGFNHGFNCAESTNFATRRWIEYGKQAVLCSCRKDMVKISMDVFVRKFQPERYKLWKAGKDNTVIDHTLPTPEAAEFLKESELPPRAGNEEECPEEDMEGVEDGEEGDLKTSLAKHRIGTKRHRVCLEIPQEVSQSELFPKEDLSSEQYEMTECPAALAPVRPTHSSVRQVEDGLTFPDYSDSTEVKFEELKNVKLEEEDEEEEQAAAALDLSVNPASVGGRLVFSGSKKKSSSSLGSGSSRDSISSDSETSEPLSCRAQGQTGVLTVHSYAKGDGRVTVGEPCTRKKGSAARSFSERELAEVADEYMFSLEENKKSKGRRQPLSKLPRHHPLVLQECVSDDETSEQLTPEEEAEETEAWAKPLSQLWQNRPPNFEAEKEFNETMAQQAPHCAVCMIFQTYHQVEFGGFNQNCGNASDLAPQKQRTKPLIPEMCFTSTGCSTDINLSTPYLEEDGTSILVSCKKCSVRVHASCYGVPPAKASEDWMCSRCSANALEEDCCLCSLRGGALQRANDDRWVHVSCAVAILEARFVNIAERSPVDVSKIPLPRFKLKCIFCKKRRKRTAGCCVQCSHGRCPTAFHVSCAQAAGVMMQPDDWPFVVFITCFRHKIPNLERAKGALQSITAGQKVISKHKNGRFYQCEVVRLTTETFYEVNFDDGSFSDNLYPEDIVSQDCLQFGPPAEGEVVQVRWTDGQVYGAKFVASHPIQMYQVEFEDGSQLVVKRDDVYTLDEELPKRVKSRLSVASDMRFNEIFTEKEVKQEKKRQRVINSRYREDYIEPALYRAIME
Put plainly: Inhibition of C-terminal FLAG-tagged human KDM4A expressed in Escherichia coli at 50 uM pre-incubated for 4 hrs before substrate addition and measured after 1 hr by AlphaScreen assay.

Assay [4] has as its target Lysine-specific demethylase 6B (Homo sapiens) (UniProt O15054). The experiment in a line: Inhibition of C-terminal FLAG-tagged human KDM6B expressed in expressed in Sf9 cells at 50 uM pre-incubated for 4 hrs before substrate addition and measured after 1 hr by AlphaScreen assay.
Assay [5] addresses Histone deacetylase 1 (Homo sapiens) (UniProt Q13547). Put plainly: Inhibition of C-terminal GST-tagged full-length human HDAC1 expressed in Sf9 cells at 100 uM pre-incubated for 10 mins before substrate addition and measured after 20 mins by fluorescence assay.
Assay [6] deals with T1, Lysine-specific demethylase 5A. The experiment in a line: Inhibition of C-terminal FLAG-tagged human KDM5A expressed in Sf9 cells at 200 uM pre-incubated for 15 mins before H3(1-21)K4me3 peptide substrate addition in presence of 50 uM alpha-KG by formaldehyde dehydrogenase coupled demethylase assay.
For assay [7] the target is unchanged. The experiment in a line: Inhibition of C-terminal FLAG-tagged human KDM5A expressed in Sf9 cells at 200 uM pre-incubated for 15 mins before H3(1-21)K4me3 peptide substrate addition in presence of 1000 uM alpha-KG by formaldehyde dehydrogenase coupled demethylase assay.
Assay [8] has the same target. Put plainly: Inhibition of KDM5A in human A549 cells assessed as H3K4me3/H3 ratio level at 250 uM levels incubated for 24 hrs by Western blot analysis relative to control. It counts as cell-based. Background: Immunoblotting shows a protein as a band on a membrane.
Assay [9] shares this target. Put plainly: Inhibition of KDM5A in human A549 cells assessed as H3K4me3/H3 ratio level at 100 uM levels incubated for 24 hrs by Western blot analysis relative to control. It counts as cell-based.
Assay [10] has the same target. The experiment in a line: Inhibition of KDM5A in human A549 cells assessed as H3K4me3/H3 ratio level at 50 uM levels incubated for 24 hrs by Western blot analysis relative to control. It counts as cell-based.
Another assay relates to A549. Put plainly: Cytotoxicity in human A549 cells assessed as reduction in cell viability at 250 uM. It counts as functional, cell-based.
Assay [11] has as its target T1, Lysine-specific demethylase 5A. The experiment in a line: Inhibition of KDM5A in human A549 cells assessed as increase in H3K4me3/H3 levels incubated for 24 hrs by Western blot analysis. It counts as cell-based.
The target is the same in assay [12]. The experiment in a line: Inhibition of KDM5A in human A549 cells assessed as increase in H3K4me3/H3 ratio level at 50 to 250 uM levels incubated for 24 hrs by Western blot analysis relative to control. It counts as cell-based.
Assay [13] deals with T3, Lysine-specific demethylase 4A (Homo sapiens, UniProt O75164).
T3 sequence (O75164 whole entry): T2 sequence (whole entry)
Put plainly: Inhibition of C-terminal FLAG-tagged human KDM4A expressed in Escherichia coli pre-incubated for 4 hrs before substrate addition and measured after 1 hr by AlphaScreen assay.

Calls of active or inactive are those of the source. The rule behind the calls is not given here.

Eight compounds from ChEMBL document CHEMBL4392841, “Identification of ortho-hydroxy anilide as a novel scaffold for lysine demethylase 5 inhibitors” (Bioorg Med Chem Lett, 2019) can be followed below.

T1 sequence (P29375 whole entry): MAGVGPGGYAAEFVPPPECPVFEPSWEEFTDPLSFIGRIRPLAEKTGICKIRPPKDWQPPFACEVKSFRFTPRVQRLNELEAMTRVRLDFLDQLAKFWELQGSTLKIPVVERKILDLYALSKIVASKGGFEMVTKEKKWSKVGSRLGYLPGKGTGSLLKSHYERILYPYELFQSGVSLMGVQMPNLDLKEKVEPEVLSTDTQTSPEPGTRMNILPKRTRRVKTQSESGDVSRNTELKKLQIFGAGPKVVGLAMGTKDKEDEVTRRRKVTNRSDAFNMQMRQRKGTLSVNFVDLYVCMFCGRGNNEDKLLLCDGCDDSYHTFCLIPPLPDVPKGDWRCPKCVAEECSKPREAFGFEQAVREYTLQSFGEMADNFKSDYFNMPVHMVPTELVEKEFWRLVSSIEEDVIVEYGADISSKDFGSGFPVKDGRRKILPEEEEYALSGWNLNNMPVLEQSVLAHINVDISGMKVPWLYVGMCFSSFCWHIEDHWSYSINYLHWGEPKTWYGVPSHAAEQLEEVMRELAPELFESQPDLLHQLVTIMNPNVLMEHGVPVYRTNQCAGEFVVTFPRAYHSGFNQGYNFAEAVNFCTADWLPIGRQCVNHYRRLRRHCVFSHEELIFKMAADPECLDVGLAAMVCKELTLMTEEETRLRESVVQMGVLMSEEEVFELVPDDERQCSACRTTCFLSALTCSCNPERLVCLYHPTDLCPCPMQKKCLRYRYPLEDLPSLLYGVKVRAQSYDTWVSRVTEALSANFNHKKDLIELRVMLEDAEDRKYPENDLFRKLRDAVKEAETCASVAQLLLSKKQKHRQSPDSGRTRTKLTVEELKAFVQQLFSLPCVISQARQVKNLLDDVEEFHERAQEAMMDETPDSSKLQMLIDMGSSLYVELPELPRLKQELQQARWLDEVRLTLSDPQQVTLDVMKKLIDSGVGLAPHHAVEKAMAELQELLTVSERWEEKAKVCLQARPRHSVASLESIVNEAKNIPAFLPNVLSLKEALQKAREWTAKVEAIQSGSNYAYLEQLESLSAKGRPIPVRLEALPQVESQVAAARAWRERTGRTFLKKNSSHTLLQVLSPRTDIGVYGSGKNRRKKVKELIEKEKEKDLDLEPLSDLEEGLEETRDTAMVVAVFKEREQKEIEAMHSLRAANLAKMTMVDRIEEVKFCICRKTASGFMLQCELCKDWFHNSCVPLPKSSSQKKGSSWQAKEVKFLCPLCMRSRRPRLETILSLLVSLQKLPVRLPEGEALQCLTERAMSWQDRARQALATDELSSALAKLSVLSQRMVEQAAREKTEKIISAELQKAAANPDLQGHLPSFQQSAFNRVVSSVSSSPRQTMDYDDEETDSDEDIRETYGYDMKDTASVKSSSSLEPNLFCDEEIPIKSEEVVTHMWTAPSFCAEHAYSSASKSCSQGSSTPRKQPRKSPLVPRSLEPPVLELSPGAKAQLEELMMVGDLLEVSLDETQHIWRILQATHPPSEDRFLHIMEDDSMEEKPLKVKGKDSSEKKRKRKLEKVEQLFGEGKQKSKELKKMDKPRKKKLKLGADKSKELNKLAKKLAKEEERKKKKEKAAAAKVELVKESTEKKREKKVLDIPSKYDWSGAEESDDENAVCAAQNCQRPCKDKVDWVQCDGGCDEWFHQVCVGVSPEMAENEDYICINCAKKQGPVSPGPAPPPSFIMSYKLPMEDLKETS
Sequence of Lysine-specific demethylase 6B (Homo sapiens) (O15054 whole entry): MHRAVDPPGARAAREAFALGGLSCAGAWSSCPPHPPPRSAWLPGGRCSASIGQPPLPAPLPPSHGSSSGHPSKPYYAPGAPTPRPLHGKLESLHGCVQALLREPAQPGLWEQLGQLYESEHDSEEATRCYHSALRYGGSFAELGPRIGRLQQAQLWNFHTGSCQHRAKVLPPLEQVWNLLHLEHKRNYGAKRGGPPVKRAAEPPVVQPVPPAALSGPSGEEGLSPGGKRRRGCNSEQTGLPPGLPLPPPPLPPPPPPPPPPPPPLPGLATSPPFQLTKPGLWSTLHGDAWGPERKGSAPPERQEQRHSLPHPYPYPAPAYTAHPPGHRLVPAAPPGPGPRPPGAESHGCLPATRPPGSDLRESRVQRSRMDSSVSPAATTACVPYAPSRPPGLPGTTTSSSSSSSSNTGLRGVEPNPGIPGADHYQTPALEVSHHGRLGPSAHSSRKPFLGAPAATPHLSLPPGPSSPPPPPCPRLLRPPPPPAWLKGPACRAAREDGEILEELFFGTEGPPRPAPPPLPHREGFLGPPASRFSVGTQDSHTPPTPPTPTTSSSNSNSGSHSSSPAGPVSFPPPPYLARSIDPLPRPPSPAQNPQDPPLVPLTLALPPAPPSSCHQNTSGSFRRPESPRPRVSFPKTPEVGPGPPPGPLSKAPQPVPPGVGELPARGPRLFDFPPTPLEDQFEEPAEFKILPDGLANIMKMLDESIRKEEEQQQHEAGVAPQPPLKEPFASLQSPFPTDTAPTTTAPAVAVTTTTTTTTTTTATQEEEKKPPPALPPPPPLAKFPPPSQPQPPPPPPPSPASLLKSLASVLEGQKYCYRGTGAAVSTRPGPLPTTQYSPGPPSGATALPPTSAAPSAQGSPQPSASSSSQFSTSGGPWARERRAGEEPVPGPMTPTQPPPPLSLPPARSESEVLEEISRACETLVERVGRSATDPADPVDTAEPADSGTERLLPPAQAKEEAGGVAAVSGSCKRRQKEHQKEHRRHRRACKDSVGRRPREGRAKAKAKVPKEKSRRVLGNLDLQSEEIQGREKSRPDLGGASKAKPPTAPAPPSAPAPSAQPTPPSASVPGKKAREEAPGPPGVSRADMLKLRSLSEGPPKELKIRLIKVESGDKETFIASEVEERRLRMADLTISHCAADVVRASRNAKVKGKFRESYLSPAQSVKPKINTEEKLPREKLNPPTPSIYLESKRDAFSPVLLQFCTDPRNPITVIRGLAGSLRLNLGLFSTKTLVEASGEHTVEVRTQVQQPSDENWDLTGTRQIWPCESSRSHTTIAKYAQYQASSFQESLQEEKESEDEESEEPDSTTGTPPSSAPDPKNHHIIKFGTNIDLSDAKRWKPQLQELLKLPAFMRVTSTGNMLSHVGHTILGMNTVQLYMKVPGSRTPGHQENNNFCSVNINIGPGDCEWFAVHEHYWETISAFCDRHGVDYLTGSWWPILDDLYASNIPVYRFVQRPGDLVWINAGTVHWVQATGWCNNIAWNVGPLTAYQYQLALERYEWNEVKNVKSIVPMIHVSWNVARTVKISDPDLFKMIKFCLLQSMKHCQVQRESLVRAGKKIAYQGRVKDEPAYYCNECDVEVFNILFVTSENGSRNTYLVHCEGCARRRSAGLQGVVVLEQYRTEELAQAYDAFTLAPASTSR
Sequence of Histone deacetylase 1 (Homo sapiens) (Q13547 whole entry): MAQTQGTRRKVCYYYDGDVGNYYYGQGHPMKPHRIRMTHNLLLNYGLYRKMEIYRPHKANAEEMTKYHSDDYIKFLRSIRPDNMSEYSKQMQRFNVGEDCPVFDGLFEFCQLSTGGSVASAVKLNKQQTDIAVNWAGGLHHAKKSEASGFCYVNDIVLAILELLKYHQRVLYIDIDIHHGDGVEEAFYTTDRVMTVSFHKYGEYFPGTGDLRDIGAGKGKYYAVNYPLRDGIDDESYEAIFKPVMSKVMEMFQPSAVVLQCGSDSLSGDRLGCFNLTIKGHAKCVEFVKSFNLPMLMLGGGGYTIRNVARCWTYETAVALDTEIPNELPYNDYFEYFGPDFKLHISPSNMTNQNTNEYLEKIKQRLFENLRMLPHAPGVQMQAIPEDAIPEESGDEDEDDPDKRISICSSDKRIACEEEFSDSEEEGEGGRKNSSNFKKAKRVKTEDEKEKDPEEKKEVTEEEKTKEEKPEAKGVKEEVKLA

Turning to `O=CNc1ccc(C(=O)O)cc1O`, the inhibition in [1] came out at 87%; in assay [3], 20%; in assay [4], 38%; in [5], 6%; in [6] it was 97%; in assay [7], 44%. Half-maximal inhibition in assay [2] (IC50) required 46 µM. Moreover, the Ratio came out at 0.96 in assay [8], 1.01 in assay [9] and 0.93 in assay [10]. The outcome in the assay with A549 was inactive.

As to `CC(=O)Nc1ccc(C(=O)O)cc1O`, the inhibition entry in assay [1] is “Active”.

As for `CC(=O)Nc1cc(C(=O)O)ccc1O`, the inhibition entry in assay [1] was “Active”.

`CCCCCN(C)CCCCC(=O)N(O)CCC(=O)O` registered a half-maximal inhibitory concentration (IC50) in [2] of 0.079 µM.

As for `COC(=O)c1ccc(NC=O)c(O)c1`, the inhibition entry in [11] was “Dose-dependent effect”. Moreover, the Ratio in [8] was determined as 2.15; in assay [9], 1.72; in assay [10] it was 1.31. Besides, in assay [12], the fold change (FC) is 1.7 to 2.2. Further, the outcome in the assay with A549 was inactive.

For the compound `CC(=O)Nc1ccc(C(=O)O)cc1N`, the inhibition entry in [1] is “inactive”.

In assay [13], `O=C(O)CNC(=O)C(=O)O` [N-OXALYLGLYCINE] had a concentration for half-maximal inhibition (IC50) of 85 µM.

On to `O=CNc1cc(C(=O)O)ccc1O`, for which the inhibition in [1] amounted to 73%. The IC50 in assay [2] worked out at 48 µM.

What is called inhibition is the percentage by which the read-out fell short of the control. Broadly, the IC50 is the concentration needed to halve the response being measured. High values mean lower potency, low ones higher potency.
